In patent publication US7585637B2, “Estrogen related receptor, ERRα, a regulator of bone formation” (priority 1999, dated 2009):

How the values were obtained:
[1] = tested on: ERRα mRNA; test: ERRα mRNA expression (Northern blot) in RC cells treated with hormones or growth factors; assay type: cell-based, rat; details: for effect of acute exposure on ERRα mRNA levels: 24 hours beginning at day 9 or day 15 (E2, D3) or day 7 and day 15 (TGFβ); for stimulation of ERRα mRNA expression at times later than day 6 / stimulation (increase) of ERRα mRNA expression: RC cells treated continuously; for stimulation (increase) of ERRα mRNA expression: E2 10^−8M, D3 10^−9M, TGFβ 10^−10 M
Protocol: (§1) Cells were enzymatically isolated from the calvaria of 21 d Wistar rat fetuses by sequential digestion with collagenase as described previously (Bellows, 1986). Cells obtained from the last four of the five digestion steps (populations II-V) were pooled and plated in T-75 flasks in α-MEM containing 15% heat-inactivated FBS (Flow Laboratories, McLean, Va.) and antibiotics comprising […] penicillin G (Sigma Chemical Co., St. Louis, Mo.), […] gentamycin (Sigma), and […] fungizone (Flow Laboratories). After 24 h incubation, attached cells were washed with PBS to remove nonviable cells and other debris, and then collected by trypsinization using 0.01% trypsin in citrate saline. Aliquots were counted with a Coulter Counter (Coulter Electronics, Hialeah Fla.), and the remaining cells were resuspended in the standard medium described above. The resuspended cells were plated into 100 mm tissue culture dishes at 10^5 cells/dish, into 35 mm tissue culture dishes at 2×10^4/dish and in 24 wells plates at 10^4 cells/well. […] Medium was changed every 2 days. All dishes were incubated at 37° C. in a humidified atmosphere in a 95% air/5% CO2 incubator.
Total RNA was extracted with guanidine from RC cells at different times of the culture corresponding to different stages of proliferation, differentiation and bone nodule formation (Current Protocols in Molecular Biology, vol. 1, 1996). Northern blots were prepared and hybridized with a 750bp fragment corresponding to the rat 3′ UTR of ERRα according to standard procedures (Chirgwin et al, 1979). Rat α1 COLL-I (Genovese et al.) was a 900bp cDNA PstI fragment containing the entire 3′ noncoding region and one-half of the C-terminal of the propeptide of the α1 chain of type I. Rat bone/liver/kidney ALP (Noda et al., 1987) was a 600 bp cDNA EcoRI fragment obtained by digesting pRAP54 with BssHII-XhoI to remove 1.8 kb of the 5′ region and religating the blunt ends. Rat OPN was a 700 bp cDNA BamHI-EcoRI fragment obtained by digesting the full length cDNA with PvuI to remove 800 bp of 5′ region and ligating the blunt ended fragment into SmaI cut pGEM-7Zf(+) vector (Promega, Madison, Wis.). Rat OCN was a partial cDNA containing 350 bp of the 3′ UTR isolated with OCN-specific primers from a λgt11 library prepared from ROS 17/2.8 cells, rat BSP was a partial cDNA containing 500bp of 3′ region isolated with BSP-specific primers from a λgt11 library prepared from RC cells forming bone nodules, and rat L32 was generated from RC cell mRNA by PCR using specifics primers; the identities of the OCN, BSP and L32 probes were confirmed by sequencing (Liu et al., 1994).

[2] = tested on: primary rat calvaria (RC) cells; test: Mineralized bone nodule formation (von Kossa) in RC cell cultures treated with antisense/sense oligonucleotides; assay type: cell-based; details: for decrease in mineralized bone nodule formation: treated day 5 to day 11; for decrease in mineralized bone nodule number: treated days 1-6 then normal differentiation medium, day 15
Protocol: as §1
For quantification of nodule formation, dishes or wells were fixed and stained by the Von Kossa technique and bone nodules were counted on a grid (Bellows et al., 1986; Bellows and Aubin, 1989). Results are plotted as the mean number of nodules±SD of three wells for controls and each concentration of antisense or sense primers and five dishes for pcDNA3 control and pcDNA3-ERRα.
(§2) The resuspended RC cells were plated in 24 wells plates at 10^4 cells/well. Antisense oligonucleotide inhibition of ERRα expression was accomplished with a 20-base phosphorotbioate-modified oligonucleotide, localized to the A/B domain. The ERRα antisense oligonucleatide sequence was: 5′[…]-3′(SEQ ID NO:30). Control dishes were treated with the complementary sense oligonucleotide or no oligonucleotide. Preliminary experiments were done to determine effective oligonucleotide concentrations that were not toxic. […] Medium was changed every 2 days and fresh oligonucleotides were added. mRNA was collected at day 6 for the proliferation experiments and at day 15 for the differentiation experiments. Nodules were counted at 15 days.

[3] = tested on: ALP, BSP, OPN, OCN, cbfa1, COLLI, Cyclin D1, c-Fos, Bcl2, Bax; test: RT-PCR of osteoblast, proliferation and apoptosis markers in antisense-treated RC cells; assay type: cell-based, rat
Protocol: Samples of total cellular RNA (1.5-5 μg) were reverse-transcribed using oligo dT and the first strand synthesis kit of Superscript™ II, Gibco BRL. PCR was performed with specific primers specific for ERRα. Primers, located in different exons, were as follows: […]
Osteoblast-associated and other markers were also amplified by PCR using specific primers for rat OCN, OPN, ALP, BSP, Cbfa1, COLL I (collagen type I α chain), C-fos, Cyclin D1, Bax and Bcl-2. PCR was done for 25 cycles (94° C. for 1 min, 55° C. for 1 min, 72° C. for 1 min and a final elongation step of 7 min at 72° C.) for OCN, OPN, ALP, BSP, L32, Bax and 30 cycles for Bcl-2, 32 cycles for c-Fos, 35 cycles for Cyclin D1 and Cbfa1 (with annealing temperatures of 58° C. and 62° C. respectively and 23 cycles for COLLI with annealing temperature of 59° C.
as §2

[4] = tested on: ERRα; test: Immunocytochemistry for ERRα on bone nodules after oligonucleotide treatment; assay type: cell-based, rat; details: 24 h of treatment; 1 μM
Protocol: Immunolabelling of cultures was done essentially as described previously (Turksen, 1991; Turksen, 1992). Cultures were rinsed with PBS, fixed with 3.7% formaldehyde in PBS and permeabilized with methanol at −20° C. Frozen sections were fixed 10 min in cold acetone. Paraffine sections were treated deparaffined in xylene, then rehydrated in 100%, 95% and 70% ethanol and water. After rinsing, cells in dishes or frozen, paraffine sections were incubated for 1 h at room temperature with 10% normal serum in PBS for ERRα and ERα and in 3% BSA in PBS (denaturated) for ERβ OCN, ALP, OPN, and BSP. After rinsing, cells or sections were incubated for 1.5 hours with appropriate dilutions of primary antibodies (1/50, anti-ERRα; anti-ERα or anti-ERβ (MC-20 or Y-19, respectively; Santa Cruz Biotechnology, Inc))(Shim et al, 1999; Saji et al, 2000; Tremblay et al 1999). The anti-rat OCN antiserum was kindly provided by Dominique Modrowski (INSERM U349, Hopital Lariboisiere, Paris, France) and used at 1/100 dilution. The anti-OPN MPIIIB10) and anti-BSP (WWVIDI) antibodies were purchased from the Hybridoma Bank (Iowa City, Iowa) and used at a 1/800 and 1/500 dilution respectively. […]

[5] = tested on: primary rat calvaria (RC) cells; test: Cell number (cell counting) in RC cell cultures treated with ERRα antisense/sense oligonucleotides; assay type: cell-based
Protocol: as §1
For cell growth analysis, the cell layers were rinsed in PBS, released with trypsin and collagenase (1:1, vol/vol, of solutions described above), and the harvested cells were counted electronically. Results are plotted as the average of three counts for each of three dishes for control and pcDNA3-ERRα or three wells for each concentration of antisense or sense primers used.
as §2

[6] = treated days 1-6, day 15, vs control or sense-treated

Molecule: TGFβ
- effect of acute exposure on ERRα mRNA levels [1]: no effect
- stimulation of ERRα mRNA expression at times later than day 6 [1]: not later
- stimulation (increase) of ERRα mRNA expression ([1]; day 6): 400%

Molecule: C=C1/C(=C\C=C2/CCC[C@]3(C)[C@@H]([C@H](C)CCCC(C)(C)O)CC[C@@H]23)C[C@@H](O)C[C@@H]1O [D3, 1,25(OH)2 vitamin D3]
- effect of acute exposure on ERRα mRNA levels [1]: no effect
- stimulation of ERRα mRNA expression at times later than day 6 [1]: not later
- stimulation (increase) of ERRα mRNA expression ([1]; day 6): 47%

Molecule: CCCCC[C@H](O)/C=C/[C@H]1[C@H](O)CC(=O)[C@@H]1C/C=C\CCCC(=O)O [PGE2]
- effect on ERRα expression ([1]; RC cells, PGE2 10^−9 M, Dex): Neither PGE2 nor Dex had any significant effect

Molecule: PTH-1-34: 1-34 PTH (Sigma)
- decrease of ERRα after acute exposure ([1]; acute exposure at day 7): 25%
- decrease of ERRα after acute exposure ([1]; acute exposure at day 16): 33%
- inhibition of ERRα ([1]; continuous 10^−11 M, day 6): 15%
- increase of ERRα ([1]; continuous 10^−11 M, day 12): 20%
- inhibition of ERRα ([1]; continuous 10^−11 M, day 15): 26%

Molecule: C[C@@H]1C[C@H]2[C@@H]3CCC4=CC(=O)C=C[C@]4(C)[C@@]3(F)[C@@H](O)C[C@]2(C)[C@@]1(O)C(=O)CO [Dex, dexamethasone]
- effect of acute treatment on ERRα expression level ([1]; 24 hour acute treatment of RC cells at day 9 or day 15): no effect

Molecule: 5′TCACCGGGGGTTCAGTCTCA-3′(SEQ ID NO:30) (all phosphorothioate, sugars by position and methylation of C not given here) [antisense oligonucleotide]
- decrease in mineralized bone nodule formation ([2]; 0.5 μM): 30%
- decrease in mineralized bone nodule formation ([2]; 1 μM): 60%
- decrease in mineralized bone nodule formation ([2]; 2 μM): 100%
- decrease in mineralized bone nodule number ([2]; 1 μM): 29%
- decrease in mineralized bone nodule number ([2]; 2 μM): 45%
- decrease in the number of mineralized bone nodules formed ([2]; treated days 9-15, 1 μM): 17%
- decrease in the number of mineralized bone nodules formed ([2]; treated days 9-15, 2 μM): 27%
- surface area covered by bone nodules that did form ([2]; treated days 9-15, compared to control cultures): greater surface area
- ALP expression ([3]; treated day 5 to day 11): not affected
- BSP expression ([3]; treated day 5 to day 11): decreased
- COLLI expression ([3]; treated day 5 to day 11): not affected
- OCN expression ([3]; treated day 5 to day 11): decreased
- OPN expression ([3]; treated day 5 to day 11): not affected
- cbfa1 expression ([3]; treated day 5 to day 11): decreased
- ALP expression ([3]; treated days 1-6, day 6): not significantly affected
- BSP expression ([3]; treated days 1-6, day 6): reduced significantly
- Bax expression ([3]; treated days 1-6, day 6): not significantly affected
- Bcl2 expression ([3]; treated days 1-6, day 6): not significantly affected
- COLLI expression ([3]; treated days 1-6, day 6): not significantly affected
- Cyclin D1 expression ([3]; treated days 1-6, day 6): reduced but it did not reach statistical significance
- OPN expression ([3]; treated days 1-6, day 6): not significantly affected
- c-Fos expression ([3]; treated days 1-6, day 6): not significantly affected
- cbfa1 expression ([3]; treated days 1-6, day 6): reduced significantly
- COLLI expression ([3]; treated days 1-6, day 15): not significantly altered
- OCN expression ([3]; treated days 1-6, day 15): not significantly altered
- OPN expression ([3]; treated days 1-6, day 15): not significantly altered
- ALP expression [3, 6]: remained lower
- BSP expression [3, 6]: remained lower
- ALP expression ([3]; treated days 9-15): not BSP, COLLI or ALP were decreased
- BSP expression ([3]; treated days 9-15): not BSP, COLLI or ALP were decreased
- COLLI expression ([3]; treated days 9-15): not BSP, COLLI or ALP were decreased
- OCN expression ([3]; treated days 9-15): decreased
- OPN expression ([3]; treated days 9-15): decreased
- ERRα detection in bone nodules [4]: almost undetectable
- decrease in cell number ([5]; RC cells treated days 1-6, counted at day 6, 1 μM, vs sense or untreated controls): 30%
- decrease in cell number ([5]; RC cells treated days 1-6, counted at day 6, 2 μM, vs sense or untreated controls): 40%
- decrease in cell number ([5]; treated day 5 to day 11, by day 15, 1 μM): 19%
- decrease in cell number ([5]; treated day 5 to day 11, by day 15, 2 μM): 35%
